Reference: ChEMBL document CHEMBL1641539 (Bioorg Med Chem Lett, 2011)

What was measured:
[1] = target: RAC-alpha serine/threonine-protein kinase (Homo sapiens) (UniProt P31749); experiment: Inhibition of AKT1 at 10 uM after 60 mins by TR-FRET assay
[2] = target: Calcium/calmodulin-dependent protein kinase type II subunit alpha (Homo sapiens) (UniProt Q9UQM7); experiment: Inhibition of CAMK2A at 10 uM after 60 mins by TR-FRET assay
[3] = target: Cyclin-dependent kinase 2/cyclin A (Homo sapiens) (UniProt P24941+P20248+P78396); experiment: Inhibition of CDK2/cyclin A at 10 uM after 60 mins by TR-FRET assay; type: protein-complex assay
[4] = target: Cyclin-dependent kinase 5/CDK5 activator 1 (Homo sapiens) (UniProt Q00535+Q15078); experiment: Inhibition of CDK5/p25 at 10 uM after 60 mins by TR-FRET assay; type: protein-complex assay
[5] = target: Dual specificity protein kinase CLK1 (Homo sapiens) (UniProt P49759); experiment: Inhibition of CLK1 at 10 uM after 60 mins by TR-FRET assay
[6] = target: Macrophage colony-stimulating factor 1 receptor (Homo sapiens) (UniProt P07333); experiment: Inhibition of CSF1R at 10 uM after 60 mins by TR-FRET assay
[7] = target: Dual specificity tyrosine-phosphorylation-regulated kinase 1B (Homo sapiens) (UniProt Q9Y463); experiment: Inhibition of DYRK1B at 10 uM after 60 mins by TR-FRET assay
[8] = target: Receptor tyrosine-protein kinase erbB-4 (Homo sapiens) (UniProt Q15303); experiment: Inhibition of ERBB4 at 10 uM after 60 mins by TR-FRET assay
[9] = target: Receptor-type tyrosine-protein kinase FLT3 (Homo sapiens) (UniProt P36888); experiment: Inhibition of FLT3 at 10 uM after 60 mins by TR-FRET assay
[10] = target: Glycogen synthase kinase-3 beta (Homo sapiens) (UniProt P49841); experiment: Inhibition of GSK3B at 10 uM after 60 mins by TR-FRET assay
[11] = target: Insulin receptor (Homo sapiens) (UniProt P06213); experiment: Inhibition of INSR at 10 uM after 60 mins by TR-FRET assay
[12] = target: Leucine-rich repeat serine/threonine-protein kinase 2 (Homo sapiens) (UniProt Q5S007); experiment: Inhibition of LRRK2 at 10 uM after 60 mins by TR-FRET assay
Sequence of Leucine-rich repeat serine/threonine-protein kinase 2 (Homo sapiens) (Q5S007 whole entry): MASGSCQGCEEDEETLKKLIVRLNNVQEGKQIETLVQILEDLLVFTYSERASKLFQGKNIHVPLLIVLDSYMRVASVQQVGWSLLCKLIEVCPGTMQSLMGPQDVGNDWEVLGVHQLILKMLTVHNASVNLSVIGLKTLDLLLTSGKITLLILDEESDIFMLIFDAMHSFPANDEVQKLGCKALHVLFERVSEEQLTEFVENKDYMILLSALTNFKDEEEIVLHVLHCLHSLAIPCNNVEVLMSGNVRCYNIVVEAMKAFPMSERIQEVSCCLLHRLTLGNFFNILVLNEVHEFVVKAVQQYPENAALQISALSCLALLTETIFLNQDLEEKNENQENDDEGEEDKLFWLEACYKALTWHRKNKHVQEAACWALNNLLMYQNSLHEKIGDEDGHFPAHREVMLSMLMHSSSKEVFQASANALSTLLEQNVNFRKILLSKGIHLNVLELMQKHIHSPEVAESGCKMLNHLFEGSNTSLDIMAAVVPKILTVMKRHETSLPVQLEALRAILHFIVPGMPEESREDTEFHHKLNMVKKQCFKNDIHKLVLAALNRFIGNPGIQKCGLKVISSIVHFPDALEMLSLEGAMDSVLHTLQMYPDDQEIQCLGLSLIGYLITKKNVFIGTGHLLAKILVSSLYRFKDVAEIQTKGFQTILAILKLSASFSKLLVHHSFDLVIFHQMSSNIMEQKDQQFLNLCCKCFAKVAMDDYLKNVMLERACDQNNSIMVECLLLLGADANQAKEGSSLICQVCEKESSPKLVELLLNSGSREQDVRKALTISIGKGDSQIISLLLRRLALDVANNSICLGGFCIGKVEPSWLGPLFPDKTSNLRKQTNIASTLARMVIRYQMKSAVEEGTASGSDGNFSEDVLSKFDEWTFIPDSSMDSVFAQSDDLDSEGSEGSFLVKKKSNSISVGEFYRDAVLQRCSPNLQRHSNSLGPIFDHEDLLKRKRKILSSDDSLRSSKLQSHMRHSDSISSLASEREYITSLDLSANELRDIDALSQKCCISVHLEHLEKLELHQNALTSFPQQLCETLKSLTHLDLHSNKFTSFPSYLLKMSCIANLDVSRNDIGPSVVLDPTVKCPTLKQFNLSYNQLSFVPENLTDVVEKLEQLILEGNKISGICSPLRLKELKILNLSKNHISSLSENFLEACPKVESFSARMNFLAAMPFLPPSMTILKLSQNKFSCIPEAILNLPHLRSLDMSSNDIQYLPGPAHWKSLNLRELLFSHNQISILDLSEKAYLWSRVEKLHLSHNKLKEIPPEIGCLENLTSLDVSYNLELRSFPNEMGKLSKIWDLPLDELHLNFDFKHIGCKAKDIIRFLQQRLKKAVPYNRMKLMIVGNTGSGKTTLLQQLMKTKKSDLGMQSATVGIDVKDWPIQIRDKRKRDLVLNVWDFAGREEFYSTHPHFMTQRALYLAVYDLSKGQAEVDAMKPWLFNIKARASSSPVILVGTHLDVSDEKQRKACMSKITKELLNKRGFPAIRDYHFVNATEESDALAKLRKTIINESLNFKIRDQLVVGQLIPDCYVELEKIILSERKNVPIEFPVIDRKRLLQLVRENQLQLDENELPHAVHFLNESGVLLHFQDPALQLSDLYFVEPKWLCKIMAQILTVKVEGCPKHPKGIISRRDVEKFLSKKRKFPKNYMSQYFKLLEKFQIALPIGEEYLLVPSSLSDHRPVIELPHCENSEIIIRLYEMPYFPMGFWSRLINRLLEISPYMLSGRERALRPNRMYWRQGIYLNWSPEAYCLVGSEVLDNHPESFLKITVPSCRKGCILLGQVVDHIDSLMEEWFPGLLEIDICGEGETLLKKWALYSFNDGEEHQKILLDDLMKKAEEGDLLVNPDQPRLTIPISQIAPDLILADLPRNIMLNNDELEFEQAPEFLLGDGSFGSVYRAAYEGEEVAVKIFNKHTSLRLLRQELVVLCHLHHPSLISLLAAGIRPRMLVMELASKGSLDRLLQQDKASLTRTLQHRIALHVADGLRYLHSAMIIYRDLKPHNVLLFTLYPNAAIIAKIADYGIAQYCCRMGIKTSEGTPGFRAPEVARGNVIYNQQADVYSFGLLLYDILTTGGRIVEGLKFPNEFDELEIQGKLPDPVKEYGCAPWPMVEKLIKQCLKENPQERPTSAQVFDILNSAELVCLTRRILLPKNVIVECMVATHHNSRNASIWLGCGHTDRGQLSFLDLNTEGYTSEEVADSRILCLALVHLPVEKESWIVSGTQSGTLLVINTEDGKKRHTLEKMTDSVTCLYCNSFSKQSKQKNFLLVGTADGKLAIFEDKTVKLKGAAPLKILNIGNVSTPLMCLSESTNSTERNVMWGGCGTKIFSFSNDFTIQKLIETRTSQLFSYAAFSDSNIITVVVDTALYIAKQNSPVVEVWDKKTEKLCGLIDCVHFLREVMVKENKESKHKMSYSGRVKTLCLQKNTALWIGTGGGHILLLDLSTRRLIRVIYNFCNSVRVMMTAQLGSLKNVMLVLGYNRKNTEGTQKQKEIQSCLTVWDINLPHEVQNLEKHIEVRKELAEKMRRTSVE

[13] = target: T1, Mitogen-activated protein kinase 1 (Homo sapiens, UniProt P28482); experiment: Inhibition of MAPK1 at 10 uM after 60 mins by TR-FRET assay
T1 sequence (P28482 whole entry): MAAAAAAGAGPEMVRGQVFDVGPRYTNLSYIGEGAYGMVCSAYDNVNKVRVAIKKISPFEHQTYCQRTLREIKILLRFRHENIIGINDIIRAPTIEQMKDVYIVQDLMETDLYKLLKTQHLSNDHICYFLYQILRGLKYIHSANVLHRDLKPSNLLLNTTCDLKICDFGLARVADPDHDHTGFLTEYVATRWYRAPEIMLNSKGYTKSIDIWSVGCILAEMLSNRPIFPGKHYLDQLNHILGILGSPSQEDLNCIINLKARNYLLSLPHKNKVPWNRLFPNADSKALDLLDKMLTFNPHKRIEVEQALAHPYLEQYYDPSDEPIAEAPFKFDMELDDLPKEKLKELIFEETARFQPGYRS

[14] = target: Mitogen-activated protein kinase 10 (Homo sapiens, UniProt P53779); experiment: Inhibition of MAPK10 at 10 uM after 60 mins by TR-FRET assay
[15] = target: Serine/threonine-protein kinase MARK2 (Homo sapiens) (UniProt Q7KZI7); experiment: Inhibition of MARK2 at 10 uM after 60 mins by TR-FRET assay
[16] = target: PI3-kinase p110-alpha/p85-alpha (Homo sapiens) (UniProt P27986+P42336); experiment: Inhibition of p110alpha/p85alpha at 10 uM after 60 mins by TR-FRET assay; type: protein-complex assay
[17] = target: Serine/threonine-protein kinase PLK1 (Homo sapiens) (UniProt P53350); experiment: Inhibition of PLK1 at 10 uM after 60 mins by TR-FRET assay
Sequence of Serine/threonine-protein kinase PLK1 (Homo sapiens) (P53350 whole entry): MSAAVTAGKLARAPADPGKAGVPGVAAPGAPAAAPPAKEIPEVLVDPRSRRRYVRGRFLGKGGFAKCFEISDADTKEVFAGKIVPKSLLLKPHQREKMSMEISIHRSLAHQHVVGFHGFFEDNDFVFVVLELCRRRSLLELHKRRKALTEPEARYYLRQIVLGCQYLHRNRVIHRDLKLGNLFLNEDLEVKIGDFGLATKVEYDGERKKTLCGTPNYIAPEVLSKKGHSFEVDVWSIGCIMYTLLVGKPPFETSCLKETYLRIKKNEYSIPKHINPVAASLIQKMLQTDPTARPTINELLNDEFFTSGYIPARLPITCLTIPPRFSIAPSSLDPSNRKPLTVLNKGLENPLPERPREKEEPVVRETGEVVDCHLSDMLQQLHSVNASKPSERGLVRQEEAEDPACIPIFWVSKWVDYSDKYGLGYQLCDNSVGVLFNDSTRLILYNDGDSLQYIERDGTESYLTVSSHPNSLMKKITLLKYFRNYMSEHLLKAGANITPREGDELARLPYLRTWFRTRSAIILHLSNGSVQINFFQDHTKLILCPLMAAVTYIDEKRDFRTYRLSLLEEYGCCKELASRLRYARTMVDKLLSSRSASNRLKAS

[18] = target: Serine/threonine-protein kinase PLK2 (Homo sapiens) (UniProt Q9NYY3); experiment: Inhibition of PLK2 at 10 uM after 60 mins by TR-FRET assay
[19] = target: Serine/threonine-protein kinase PLK3 (Homo sapiens) (UniProt Q9H4B4); experiment: Inhibition of PLK3 at 10 uM after 60 mins by TR-FRET assay
Sequence of Serine/threonine-protein kinase PLK3 (Homo sapiens) (Q9H4B4 whole entry, looked up): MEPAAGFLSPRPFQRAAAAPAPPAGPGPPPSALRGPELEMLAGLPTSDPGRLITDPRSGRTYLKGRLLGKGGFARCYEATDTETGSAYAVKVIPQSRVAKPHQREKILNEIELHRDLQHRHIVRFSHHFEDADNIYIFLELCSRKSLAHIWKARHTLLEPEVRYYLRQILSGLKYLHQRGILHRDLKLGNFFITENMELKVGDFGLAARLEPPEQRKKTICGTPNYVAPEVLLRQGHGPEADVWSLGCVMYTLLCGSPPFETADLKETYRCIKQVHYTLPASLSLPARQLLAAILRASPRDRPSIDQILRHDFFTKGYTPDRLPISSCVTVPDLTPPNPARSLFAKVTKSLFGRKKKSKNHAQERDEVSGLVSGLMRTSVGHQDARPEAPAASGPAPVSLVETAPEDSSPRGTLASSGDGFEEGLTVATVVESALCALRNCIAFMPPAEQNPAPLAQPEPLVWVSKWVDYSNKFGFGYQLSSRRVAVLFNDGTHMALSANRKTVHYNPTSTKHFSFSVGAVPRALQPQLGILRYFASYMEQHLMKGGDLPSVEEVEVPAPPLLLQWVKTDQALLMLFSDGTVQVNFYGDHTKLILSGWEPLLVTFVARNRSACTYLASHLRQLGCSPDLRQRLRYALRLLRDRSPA

[20] = target: cAMP-dependent protein kinase catalytic subunit alpha (Homo sapiens) (UniProt P17612); experiment: Inhibition of PRKACA at 10 uM after 60 mins by TR-FRET assay
[21] = target: Protein kinase C beta type (Homo sapiens) (UniProt P05771); experiment: Inhibition of PRKCB1 at 10 uM after 60 mins by TR-FRET assay
[22] = system: RAF proto-oncogene serine/threonine-protein kinase (Homo sapiens), P04049 [Y340D,Y341D]; experiment: Inhibition of RAF1 Y340D, Y341D mutant at 10 uM after 60 mins by TR-FRET assay
[23] = target: Proto-oncogene tyrosine-protein kinase receptor Ret (Homo sapiens) (UniProt P07949); experiment: Inhibition of RET at 10 uM after 60 mins by TR-FRET assay
[24] = target: Receptor-interacting serine/threonine-protein kinase 2 (Homo sapiens) (UniProt O43353); experiment: Inhibition of RIPK2 at 10 uM after 60 mins by TR-FRET assay
Sequence of Receptor-interacting serine/threonine-protein kinase 2 (Homo sapiens) (O43353 whole entry): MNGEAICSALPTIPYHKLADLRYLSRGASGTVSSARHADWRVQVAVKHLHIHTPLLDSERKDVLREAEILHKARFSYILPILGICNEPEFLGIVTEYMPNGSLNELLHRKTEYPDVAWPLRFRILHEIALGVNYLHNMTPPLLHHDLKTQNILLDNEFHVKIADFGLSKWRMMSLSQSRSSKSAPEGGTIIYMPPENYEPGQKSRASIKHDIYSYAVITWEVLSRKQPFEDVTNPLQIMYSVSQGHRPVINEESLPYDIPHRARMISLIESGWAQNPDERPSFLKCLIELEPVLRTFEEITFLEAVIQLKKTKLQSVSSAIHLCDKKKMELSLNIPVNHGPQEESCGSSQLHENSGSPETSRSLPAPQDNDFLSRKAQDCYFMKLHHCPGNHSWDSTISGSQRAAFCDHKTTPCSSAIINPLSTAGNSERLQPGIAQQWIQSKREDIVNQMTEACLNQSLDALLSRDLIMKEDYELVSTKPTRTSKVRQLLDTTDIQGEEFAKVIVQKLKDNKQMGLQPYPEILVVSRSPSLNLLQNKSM

[25] = target: Rho-associated protein kinase 2 (Homo sapiens) (UniProt O75116); experiment: Inhibition of ROCK2 at 10 uM after 60 mins by TR-FRET assay
[26] = target: T2, Serine/threonine-protein kinase 3 (Homo sapiens) (UniProt Q13188); experiment: Inhibition of STK3 at 10 uM after 60 mins by TR-FRET assay
T2 sequence (whole entry): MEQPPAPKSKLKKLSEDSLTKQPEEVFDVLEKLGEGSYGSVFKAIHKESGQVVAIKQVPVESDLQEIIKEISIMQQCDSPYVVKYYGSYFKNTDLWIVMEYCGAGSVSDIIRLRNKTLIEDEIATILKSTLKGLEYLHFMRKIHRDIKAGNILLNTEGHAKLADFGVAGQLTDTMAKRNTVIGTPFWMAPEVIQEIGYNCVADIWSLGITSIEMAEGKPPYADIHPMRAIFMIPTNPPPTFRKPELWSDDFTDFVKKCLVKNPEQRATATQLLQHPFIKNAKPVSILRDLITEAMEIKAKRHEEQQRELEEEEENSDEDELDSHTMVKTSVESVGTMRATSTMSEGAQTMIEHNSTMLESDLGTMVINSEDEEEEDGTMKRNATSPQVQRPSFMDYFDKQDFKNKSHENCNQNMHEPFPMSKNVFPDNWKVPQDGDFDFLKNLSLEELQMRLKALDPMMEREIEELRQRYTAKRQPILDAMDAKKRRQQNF

[27] = target: Tyrosine-protein kinase SYK (Homo sapiens) (UniProt P43405); experiment: Inhibition of SYK at 10 uM after 60 mins by TR-FRET assay
[28] = target: Mitogen-activated protein kinase 8 (Homo sapiens, UniProt P45983); experiment: Inhibition of recombinant JNK1 after 60 mins by TR-FRET assay
Sequence of Mitogen-activated protein kinase 8 (P45983 whole entry): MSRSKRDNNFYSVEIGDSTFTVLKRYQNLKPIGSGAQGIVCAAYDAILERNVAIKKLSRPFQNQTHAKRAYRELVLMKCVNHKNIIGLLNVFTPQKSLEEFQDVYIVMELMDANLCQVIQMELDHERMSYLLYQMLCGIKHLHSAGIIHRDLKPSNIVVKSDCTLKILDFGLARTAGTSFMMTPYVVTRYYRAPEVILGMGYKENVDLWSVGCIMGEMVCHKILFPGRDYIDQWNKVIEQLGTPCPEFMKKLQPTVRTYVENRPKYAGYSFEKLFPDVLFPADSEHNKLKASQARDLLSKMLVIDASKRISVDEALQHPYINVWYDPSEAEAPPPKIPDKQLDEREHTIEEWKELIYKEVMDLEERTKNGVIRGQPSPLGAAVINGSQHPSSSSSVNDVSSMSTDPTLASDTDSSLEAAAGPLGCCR

[29] = target: T1, Mitogen-activated protein kinase 1; experiment: Inhibition of recombinant ERK2 after 60 mins by TR-FRET assay

With `O=c1[nH]nc(-c2ccnc(NC3CCCCC3)c2)n1-c1ccc2ccccc2c1` the inhibition [1] was -1%, the inhibition [2] was 22% and the inhibition [3] was 2%. For the same molecule, the inhibition [4] was 8%, the inhibition [5] was 7% and the inhibition [6] was -1%. It also gave an inhibition [7] of 20%, an inhibition [8] of 2% and an inhibition [9] of 12%. It also gave an inhibition [10] of 38%, an inhibition [11] of 5% and an inhibition [12] of 11%. The inhibition [13] was 1%, the inhibition [14] was 72% and the inhibition [15] was 1%. It also gave an inhibition [16] of 29%, an inhibition [17] of 12% and an inhibition [18] of 15%. It also gave an inhibition [19] of 17%, an inhibition [20] of 3% and an inhibition [21] of 2%. For the same molecule, the inhibition [22] was 13%, the inhibition [23] was 4% and the inhibition [24] was 6%. It also gave an inhibition [25] of 15%, an inhibition [26] of -9% and an inhibition [27] of 8%. The IC50 [28] was 1000 nM and the IC50 [29] was over 50000 nM.

`O=c1n(Cc2ccccn2)nc(-c2ccnc(NC3CCOCC3)c2)n1-c1ccc2ccccc2c1` showed an inhibition [1] of -5%, an inhibition [2] of 8% and an inhibition [3] of -6%. For the same molecule, the inhibition [4] was 0%, the inhibition [5] was 2% and the inhibition [6] was 4%. It also gave an inhibition [7] of 1%, an inhibition [8] of -3% and an inhibition [9] of 11%. For the same molecule, the inhibition [10] was 7%, the inhibition [11] was 7% and the inhibition [12] was 7%. For the same molecule, the inhibition [13] was -1%, the inhibition [14] was 72% and the inhibition [15] was -2%. The inhibition [16] was -5%, the inhibition [17] was 10% and the inhibition [18] was 5%. The inhibition [19] was 5%, the inhibition [20] was 2% and the inhibition [21] was 7%. For the same molecule, the inhibition [22] was 0%, the inhibition [23] was -1% and the inhibition [24] was 1%. For the same molecule, the inhibition [25] was 5%, the inhibition [26] was -9% and the inhibition [27] was 1%. The IC50 [28] was 990 nM and the IC50 [29] was over 50000 nM.

`O=c1n(Cc2ccncc2)nc(-c2ccnc(NC3CCCCC3)c2)n1-c1ccc2ccccc2c1` showed an inhibition [1] of -2%, an inhibition [2] of 2% and an inhibition [3] of 3%. For the same molecule, the inhibition [4] was -3%, the inhibition [5] was 3% and the inhibition [6] was 1%. It also gave an inhibition [7] of 18%, an inhibition [8] of -3% and an inhibition [9] of 20%. The inhibition [10] was 13%, the inhibition [11] was 2% and the inhibition [12] was -9%. It also gave an inhibition [13] of 5%, an inhibition [14] of 76% and an inhibition [15] of 0%. It also gave an inhibition [16] of 6%, an inhibition [17] of 2% and an inhibition [18] of 0%. The inhibition [19] was -5%, the inhibition [20] was 6% and the inhibition [21] was 19%. The inhibition [22] was -2%, the inhibition [23] was 3% and the inhibition [24] was 8%. It also gave an inhibition [25] of 6%, an inhibition [26] of 5% and an inhibition [27] of 7%. It also gave an IC50 [28] of 700 nM and an IC50 [29] of over 50000 nM.

Molecule `O=c1n(C2CCOCC2)nc(-c2ccnc(NC3CCCCC3)c2)n1-c1ccc2ccccc2c1` has an inhibition [1] of 0%, an inhibition [2] of 19% and an inhibition [3] of 0%. The inhibition [4] was 3%, the inhibition [5] was 4% and the inhibition [6] was 7%. The inhibition [7] was 39%, the inhibition [8] was 3% and the inhibition [9] was 8%. For the same molecule, the inhibition [10] was 15%, the inhibition [11] was 10% and the inhibition [12] was 7%. The inhibition [13] was -1%, the inhibition [14] was 86% and the inhibition [15] was 0%. For the same molecule, the inhibition [16] was 0%, the inhibition [17] was 5% and the inhibition [18] was 26%. The inhibition [19] was 32%, the inhibition [20] was 13% and the inhibition [21] was 7%. For the same molecule, the inhibition [22] was -3%, the inhibition [23] was 10% and the inhibition [24] was 13%. It also gave an inhibition [25] of 9%, an inhibition [26] of -10% and an inhibition [27] of 26%. It also gave an IC50 [28] of 420 nM and an IC50 [29] of over 50000 nM.

Work on `O=c1[nH]nc(-c2ccnc(NC3CCOCC3)c2)n1-c1ccc2ccccc2c1` yielded an inhibition [1] of 3%, an inhibition [2] of 11% and an inhibition [3] of 35%. It also gave an inhibition [4] of 24%, an inhibition [5] of 6% and an inhibition [6] of 74%. For the same molecule, the inhibition [7] was 22%, the inhibition [8] was 3% and the inhibition [9] was 32%. For the same molecule, the inhibition [10] was 73%, the inhibition [11] was 8% and the inhibition [12] was 25%. It also gave an inhibition [13] of 5%, an inhibition [14] of 73% and an inhibition [15] of 4%. The inhibition [16] was 49%, the inhibition [17] was 19% and the inhibition [18] was 33%. It also gave an inhibition [19] of 13%, an inhibition [20] of 6% and an inhibition [21] of 11%. It also gave an inhibition [22] of 16%, an inhibition [23] of 11% and an inhibition [24] of 6%. It also gave an inhibition [25] of 10%, an inhibition [26] of -4% and an inhibition [27] of 14%. For the same molecule, the IC50 [28] was 1800 nM and the IC50 [29] was over 50000 nM.
